Consider 13 compounds from publication PMC6767919 (European journal of pharmacology, 2019).

Marks after values point to notes of the source that are not given here.

By Ki is commonly meant a dissociation constant, usually derived from enzyme kinetics or from competition with a known ligand.

The target in data set [1] is T1, human 5-HT2C–INI (wild-type, WT) receptor (Homo sapiens, UniProt P28335).
T1 sequence (P28335 33-458): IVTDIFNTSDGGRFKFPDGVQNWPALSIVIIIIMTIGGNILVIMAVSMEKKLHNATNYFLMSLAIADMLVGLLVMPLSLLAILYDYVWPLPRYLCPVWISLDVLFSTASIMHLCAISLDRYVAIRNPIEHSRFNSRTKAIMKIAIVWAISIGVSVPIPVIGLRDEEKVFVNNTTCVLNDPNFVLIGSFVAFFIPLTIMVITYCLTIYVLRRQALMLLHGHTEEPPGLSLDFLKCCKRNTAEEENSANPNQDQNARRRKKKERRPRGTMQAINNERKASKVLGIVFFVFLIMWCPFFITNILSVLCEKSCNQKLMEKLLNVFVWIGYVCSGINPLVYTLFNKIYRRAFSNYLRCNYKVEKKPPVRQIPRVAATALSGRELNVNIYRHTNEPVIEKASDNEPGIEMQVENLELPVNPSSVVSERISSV
Type of data set: cell-based.

The target in a further data set is T2, 5-HT2C-INI receptor (Homo sapiens, UniProt P28335).
T2 sequence (P28335 33-458): T1 sequence (P28335 33-458)
Put plainly: DiscoverX PathHunter β-arrestin recruitment to the 5-HT2C receptor. Conditions: for Emax (% 5-HT), β-arrestin recruitment / pEC50, β-arrestin recruitment: U2OS cells stably expressing 5-HT2C-INI, agonist 2 h, n = 3. The data set is classed as cell-based. A general note: Arrestin recruitment assays detect the binding of arrestin to an activated receptor.

The target of data set [2] is T3, 5-HT2C receptor (Homo sapiens, UniProt P28335).
T3 sequence (P28335 33-458): T1 sequence (P28335 33-458)
In words: Inverse agonist reduction of basal 5-HT2C-mediated IP production. Type of data set: cell-based. Conditions: CHO-K1 cells; basal 5-HT2C-mediated IP production after 20 h of vehicle; n = 3.

The next data set has as its target T4, 5-HT2C receptor (WT) (Homo sapiens, UniProt P28335).
T4 sequence (P28335 33-458): T1 sequence (P28335 33-458)
The data set is classed as cell-based.

A short description of data set [3]: Solubility in the desensitization assay. The data set is classed as physicochemical.
In a further data set the target is PKC. The note with it: read-out: Ki for PKC; ref Herbert et al., 1990; Absolinova et al., 2010; cited from earlier work.
Data set [4] addresses T3, 5-HT2C receptor. Put plainly: Effect of PKC inhibition on 5-HT-induced 5-HT2C receptor desensitization. The note with it: 10 μM chelerythrine; data not shown.
For data set [5], the target named is T3, 5-HT2C receptor. Put plainly: Inverse agonist sensitization of 5-HT2C receptor IP signaling. The data set is classed as cell-based. The note with it: pretreatment for 8 h or less; data not shown.
For data set [6], the target named is T3, 5-HT2C receptor. Conditions: ref Schlag et al., 2004; cited from earlier work.

Turning to `C[C@H](N)Cn1ccc2cc(F)c(Cl)cc21` [Ro 60–0175], in data set [1], the “Emax (% 5-HT), inositol phosphate production” value is given as 99 ± 6 % 5-HT; the “agonist efficacy class relative to 5-HT, IP production” value is listed as “full agonists”; the “pEC50, inositol phosphate production” value is on record as 8.30 ± 0.05. Further, at 5-HT2C-INI receptor, the “Emax (% 5-HT), β-arrestin recruitment” value turned out to be 92 ± 4 % 5-HT and the “pEC50, β-arrestin recruitment” value was 7.86 ± 0.11.

For `CN(C)[C@@H]1Cc2ccccc2[C@@H](c2cccc(C(F)(F)F)c2)C1` (relative stereo) [MFP, (2S,4R)-(−)-trans-4-(3’[meta]-trifluoromethylphenyl)-N,N-dimethyl-1,2,3,4-tetrahydronaphthalene-2-amine], on 5-HT2C receptor [2], the “Imax (% decrease from basal), inositol phosphate reduction” value is listed as 25 ± 3 % decrease from basal and the “pIC50, inositol phosphate reduction” value was 7.62 ± 0.10.

Take `O=C1Nc2cc(Cl)c(Cl)cc2N2CCNCC12` (stereo not drawn) [WAY-161503]: in [1], the “Emax (% 5-HT), inositol phosphate production” value was found to be 100 ± 2 % 5-HT; the “agonist efficacy class relative to 5-HT, IP production” value is listed as “full agonists”; the “pEC50, inositol phosphate production” value amounted to 8.07 ± 0.08.

For `CN(C)[C@@H]1Cc2ccccc2[C@@H](c2cccc(Br)c2)C1` (relative stereo) [MBP, (2S,4R)-(−)-trans-4-(3’[meta]-bromophenyl)-N,N-dimethyl-1,2,3,4-tetrahydronaphthalen-2-amine], in [1], the “Emax (% 5-HT), inositol phosphate production” value is listed as 73 ± 4^a % 5-HT; the “agonist efficacy class relative to 5-HT, IP production” value was “partial agonists”; the “pEC50, inositol phosphate production” value is given as 7.76 ± 0.04. Moreover, at 5-HT2C-INI receptor, the “effect on 5-HT2C receptor β-arrestin recruitment (in words)” value is on record as “negligible effects”; the “Emax (% 5-HT), β-arrestin recruitment” value is on record as 7 ± 4^a % 5-HT; the “pEC50, β-arrestin recruitment” value was 6.84 ± 0.10^a.

Take `O=C1CCc2ccc(OCCCCN3CCN(c4cccc(Cl)c4Cl)CC3)cc2N1` [aripiprazole]: the “Emax (% 5-HT), inositol phosphate production” value in data set [1] was 40 ± 4^a % 5-HT. On 5-HT2C-INI receptor, the “effect on 5-HT2C receptor β-arrestin recruitment (in words)” value was “negligible effects” and the “Emax (% 5-HT), β-arrestin recruitment” value is 8 ± 1^a % 5-HT. Also, the “desensitization of 5-HT2C-PLC signaling (in words)” value on 5-HT2C receptor (WT) is “did not desensitize”. Also, the “solubility in the desensitization assay” value in data set [3] is reported as “low solubility”.

Regarding `CN(C)[C@@H]1Cc2ccccc2[C@@H](C2CCCCC2)C1` (relative stereo) [CAT, (2S,4R)-(−)-trans-4-cyclohexyl-N,N-dimethyl-1,2,3,4-tetrahydronaphthalen-2-amine], on 5-HT2C receptor [2], the “Imax (% decrease from basal), inositol phosphate reduction” value turned out to be 26 ± 4 % decrease from basal and the “pIC50, inositol phosphate reduction” value worked out at 7.17 ± 0.21.

`COc1ccc2c(c[n+](C)c3c4cc5c(cc4ccc23)OCO5)c1OC` [chelerythrine]: the Ki on PKC was 700 nM. The “effect of chelerythrine on 5-HT-induced IP production in non-desensitized cells” value on 5-HT2C receptor [4] is “no effect”.

Consider `COc1cc(CC(C)N)c(OC)cc1I` (racemic) [DOI, (±) 2,5-dimethoxy-4-iodoamphetamine], for which, in data set [1], the “Emax (% 5-HT), inositol phosphate production” value was 82 ± 4 % 5-HT; the “agonist efficacy class relative to 5-HT, IP production” value was “full agonists”; the “pEC50, inositol phosphate production” value came out at 8.32 ± 0.10.

`Cn1ccc2cc3c(cc21)CCN3C(=O)Nc1cccnc1` [SB 206553]: on 5-HT2C receptor [2], the “Imax (% decrease from basal), inositol phosphate reduction” value was 32 ± 5 % decrease from basal. Also, on 5-HT2C receptor [5], the “sensitization of the 5-HT2C receptor after short pretreatment” value was “does not sensitize”. Also, the “sensitization of 5-HT2C receptors after 30 min pretreatment” value on 5-HT2C receptor [6] was “insufficient to sensitize”.

Turning to `C[C@H]1CNCCc2ccc(Cl)cc21` [lorcaserin], the “Emax (% 5-HT), inositol phosphate production” value in data set [1] turned out to be 100 ± 1 % 5-HT. Further, the “Emax (% 5-HT), β-arrestin recruitment” value at 5-HT2C-INI receptor is given as 118 ± 5^a % 5-HT.

Turning to `Clc1cccc(N2CCNCC2)c1` [mCPP, 1-(3-chlorophenyl)piperazine], the “Emax (% 5-HT), inositol phosphate production” value in data set [1] was 88 ± 10 % 5-HT.

As to `CN1C[C@@H](NS(=O)(=O)N(C)C)C[C@@H]2c3cccc4c3c(cn4C)C[C@H]21` [mesulergine], the “Imax (% decrease from basal), inositol phosphate reduction” value at 5-HT2C receptor [2] is listed as 17 ± 2 % decrease from basal.

As for `CN(C)[C@@H]1Cc2ccccc2[C@@H](c2ccccc2)C1` (relative stereo) [PAT, (2S,4R)-(−)-trans-4-phenyl-N,N-dimethyl-1,2,3,4-tetrahydronaphthalen-2-amine], the “Emax (% 5-HT), inositol phosphate production” value in data set [1] is given as 50 ± 1^a % 5-HT.
